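Cultured in 96-well plates, cells were exposed to test compound for 48 hours across five concentrations. Here, GI50 denotes the concentration required for 50% inhibition of growth.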 The source made the active and inactive calls. Rule as the data show it: active = GI50 up to about 1.1 µM and inactive = higher.
Tests used:
Experiment in all cases: DTP human tumour cell line panel, 48 h
[1] = tested on: A549
[2] = tested on: ACHN
[3] = tested on: COLO 205
[4] = tested on: EKVX
[5] = tested on: HCT-15
[6] = tested on: HOP-92
[7] = tested on: HT-29
[8] = tested on: IGROV-1
[9] = tested on: MOLT-4
[10] = tested on: Malme-3M
[11] = tested on: OVCAR-5
[12] = tested on: RPMI-8226
[13] = tested on: RXF 393
[14] = tested on: SK-MEL-5
[15] = tested on: SR
[16] = tested on: UO-31
[17] = tested on: CCRF-CEM
[18] = tested on: UACC-257
[19] = tested on: NCI-H460
[20] = tested on: MDA-N

ON(CCc1ccncc1)Cc1ccccc1
GI50 [1]: > 100 µM (inactive) | GI50 [2]: > 100 µM (inactive) | GI50 [3]: > 100 µM (inactive) | GI50 [4]: > 100 µM (inactive) | GI50 [5]: > 100 µM | GI50 [6]: > 100 µM (inactive) | GI50 [7]: > 100 µM (inactive) | GI50 [8]: > 100 µM (inactive) | GI50 [9]: > 100 µM (inactive) | GI50 [10]: > 100 µM (inactive) | GI50 [11]: > 100 µM (inactive) | GI50 [12]: > 100 µM (inactive) | GI50 [13]: > 100 µM (inactive) | GI50 [14]: > 100 µM (inactive) | GI50 [15]: > 100 µM (inactive) | GI50 [16]: > 100 µM (inactive)

O=c1cc(-c2ccccc2)oc2cc(OCCSCCCCCCCCCCSCCOc3ccc4c(=O)cc(-c5ccccc5)oc4c3)ccc12
GI50 [1]: > 100 µM (inactive) | GI50 [2]: > 100 µM (inactive) | GI50 [17]: > 100 µM (inactive) | GI50 [3]: > 100 µM (inactive) | GI50 [4]: > 100 µM (inactive) | GI50 [5]: > 100 µM | GI50 [6]: 43.5 µM (inactive) | GI50 [7]: > 100 µM (inactive) | GI50 [8]: > 100 µM (inactive) | GI50 [9]: > 100 µM (inactive) | GI50 [10]: > 100 µM (inactive) | GI50 [12]: > 100 µM (inactive) | GI50 [13]: 37.2 µM (inactive) | GI50 [14]: > 100 µM (inactive) | GI50 [15]: > 100 µM (inactive) | GI50 [18]: > 100 µM (inactive) | GI50 [16]: > 100 µM (inactive)

COc1cc(Nc2cnc3ccc(C(F)(F)F)cc3n2)cc(OC)c1OC
GI50 [1]: 20.4 µM (inactive) | GI50 [2]: 9.95 µM (inactive) | GI50 [17]: 24.7 µM (inactive) | GI50 [3]: 6.18 µM (inactive) | GI50 [4]: > 100 µM (inactive) | GI50 [5]: 3.95 µM | GI50 [6]: 4.82 µM (inactive) | GI50 [7]: 12.2 µM (inactive) | GI50 [9]: 39.7 µM (inactive) | GI50 [10]: > 100 µM (inactive) | GI50 [19]: 12.9 µM (inactive) | GI50 [11]: > 100 µM (inactive) | GI50 [12]: 15.3 µM (inactive) | GI50 [13]: 68.4 µM (inactive) | GI50 [15]: > 100 µM (inactive) | GI50 [18]: 9.84 µM (inactive) | GI50 [16]: 67.1 µM (inactive)

COC(=O)CSc1nnc(-c2ccc(O)c([N+](=O)[O-])c2)[nH]1
GI50 [1]: > 100 µM (inactive) | GI50 [2]: > 100 µM (inactive) | GI50 [17]: > 100 µM (inactive) | GI50 [4]: > 100 µM (inactive) | GI50 [5]: > 100 µM | GI50 [6]: > 100 µM (inactive) | GI50 [7]: > 100 µM (inactive) | GI50 [8]: > 100 µM (inactive) | GI50 [9]: > 100 µM (inactive) | GI50 [10]: > 100 µM (inactive) | GI50 [19]: > 100 µM (inactive) | GI50 [11]: > 100 µM (inactive) | GI50 [12]: > 100 µM (inactive) | GI50 [13]: > 100 µM (inactive) | GI50 [14]: > 100 µM (inactive) | GI50 [15]: > 100 µM (inactive) | GI50 [18]: > 100 µM (inactive) | GI50 [16]: > 100 µM (inactive)

O=C1[C@@H]2C(c3ccccc3F)=NO[C@@H]2C(=O)N1c1ccc(Cc2ccc(N3C(=O)[C@H]4C(c5ccccc5F)=NO[C@H]4C3=O)cc2)cc1
GI50 [1]: > 100 µM (inactive) | GI50 [2]: > 100 µM (inactive) | GI50 [17]: 16 µM (inactive) | GI50 [3]: > 100 µM (inactive) | GI50 [4]: > 100 µM (inactive) | GI50 [5]: > 100 µM | GI50 [6]: 34.4 µM (inactive) | GI50 [7]: > 100 µM (inactive) | GI50 [8]: > 100 µM (inactive) | GI50 [9]: 19.6 µM (inactive) | GI50 [10]: > 100 µM (inactive) | GI50 [19]: > 100 µM (inactive) | GI50 [11]: > 100 µM (inactive) | GI50 [12]: 29.4 µM (inactive) | GI50 [13]: > 43.7 µM (inactive) | GI50 [14]: > 100 µM (inactive) | GI50 [15]: 34.1 µM (inactive) | GI50 [18]: > 100 µM (inactive) | GI50 [16]: > 100 µM (inactive)

N#CC(c1ccccc1)N(CCOCCOCCN(C(=O)c1cccc2ccccc12)C(C#N)c1ccccc1)C(=O)c1cccc2ccccc12 (centres undefined)
GI50 [1]: 17.5 µM (inactive) | GI50 [2]: > 100 µM (inactive) | GI50 [17]: > 100 µM (inactive) | GI50 [3]: 52.1 µM (inactive) | GI50 [4]: > 100 µM (inactive) | GI50 [5]: > 100 µM | GI50 [7]: > 100 µM (inactive) | GI50 [8]: > 100 µM (inactive) | GI50 [20]: > 100 µM (inactive) | GI50 [9]: 8.15 µM (inactive) | GI50 [10]: > 100 µM (inactive) | GI50 [19]: 87.1 µM (inactive) | GI50 [11]: > 100 µM (inactive) | GI50 [13]: > 100 µM (inactive) | GI50 [14]: > 100 µM (inactive) | GI50 [18]: > 100 µM (inactive) | GI50 [16]: > 100 µM (inactive)

COC(=O)/C(=C/c1ccc(OC)cc1)NC(=O)c1ccccc1
GI50 [1]: > 100 µM (inactive) | GI50 [2]: > 100 µM (inactive) | GI50 [17]: 2 µM (inactive) | GI50 [4]: > 100 µM (inactive) | GI50 [5]: > 100 µM | GI50 [6]: > 100 µM (inactive) | GI50 [7]: > 100 µM (inactive) | GI50 [8]: > 100 µM (inactive) | GI50 [10]: > 100 µM (inactive) | GI50 [19]: > 100 µM (inactive) | GI50 [11]: > 100 µM (inactive) | GI50 [12]: > 100 µM (inactive) | GI50 [13]: > 100 µM (inactive) | GI50 [14]: > 100 µM (inactive) | GI50 [15]: > 100 µM (inactive) | GI50 [18]: > 100 µM (inactive) | GI50 [16]: > 100 µM (inactive)

Nc1ncnc2c1ncn2C1CC(OCc2ccccc2[N+](=O)[O-])C(CO)O1 (centres undefined)
GI50 [1]: 21.7 µM (inactive) | GI50 [2]: 13.3 µM (inactive) | GI50 [17]: 16.7 µM (inactive) | GI50 [3]: 9.2 µM (inactive) | GI50 [4]: 33 µM (inactive) | GI50 [5]: 21.8 µM | GI50 [6]: 21.4 µM (inactive) | GI50 [7]: 17.5 µM (inactive) | GI50 [8]: 28.9 µM (inactive) | GI50 [9]: 18.4 µM (inactive) | GI50 [10]: 20 µM (inactive) | GI50 [19]: 20.1 µM (inactive) | GI50 [11]: > 50 µM (inactive) | GI50 [12]: 14.9 µM (inactive) | GI50 [13]: 5.38 µM (inactive) | GI50 [15]: 10.8 µM (inactive) | GI50 [18]: 18.5 µM (inactive) | GI50 [16]: 17 µM (inactive)

Reference: ChEMBL document CHEMBL1201862, “PubChem BioAssay data set” (2004)
